# Where two headings read alike, the source gives them in different places.
# How the values were obtained:
# cellular GSH levels = conditions: 100 μM, 2 h incubation; cited from earlier work
# CaCo2 cell monolayers = conditions: cited from earlier work
# [1] = rats; cited from earlier work
# MRP1 [2] = conditions: cited from earlier work
# P-gp [3] = conditions: cited from earlier work; for investigated as substrate (S)/inhibitor (I): 8226/Dox, P-gp
# [4] = rats, cited from earlier work
# [5] = cited from earlier work
# BCRP [6] = conditions: FTC 10 μM, 25 μM PEITC; cited from earlier work
# BCRP [7] = conditions: NHI-H460/MX20, BCRP; cited from earlier work
# MRP1 [8] = conditions: Panc-1 cells, 100 μM isothiocyanate, 2 h; cited from earlier work
# P-gp [9] = conditions: verapamil or PSC833; Caco-2, MCF-7/ADR, MDA435/LCC6, MDA435/LCC6MDR1 cells; cited from earlier work
# MRP1 [10] = conditions: cited from earlier work; remark: listed apart in the source
# MRP2 = conditions: cited from earlier work
# P-gp [11] = conditions: MCF7/ADR cells, 100 μM isothiocyanate, 2 h; cited from earlier work
# [12] = rat, in vivo, cited from earlier work
# [13] = human, in vivo; cited from earlier work
# [14] = Effect of BITC co-administration on topotecan pharmacokinetics; conditions: Sprague-Dawley, rat, plasma
smiles,measurement,setting,value
"S=C=NCc1ccccc1 [BITC, benzyl isothiocyanate]","GSH, % of control values in untreated cells",cellular GSH levels,15.3±6.4 % of control
same,decrease of cellular GSH levels,cellular GSH levels,decreased
same,increase in accumulation of daunomycin,CaCo2 cell monolayers,1.75 fold
"S=C=Nc1cccc2ccccc12 [NITC, α-naphthyl isothiocyanate]",decrease of cellular GSH levels,cellular GSH levels,not
same,Nonlinear pharmacokinetics,[1],Yes
"C[S+]([O-])CCCCN=C=S (stereo not drawn) [Sulforaphane, sulforaphane]",accumulation of intracellular sulforaphane with inhibitors of MRP1,MRP1 [2]; MRP1 over-expressing cells,increased
same,investigated as substrate (S)/inhibitor (I),P-gp [3],Sulforaphane (S)
same,accumulation of intracellular sulforaphane with inhibitors of P-gp,P-gp [3]; P-gp over-expressing cells,increased
same,Cmax,"[4]; 50 μmol oral (Table 1: 88.5 mg oral), plasma",20 µM
same,Half-life,[4]; 50 μmol oral (Table 1: 88.5 mg oral),2.23 h
same,Half-life,"[4]; 50 μmol oral (Table 1: 88.5 mg oral), listed as sulforaphane",about 2.2 h
same,Tmax,[4]; 88.5 mg oral,4 h
CC[C@@]1(O)C(=O)OCc2c1cc1n(c2=O)Cc2cc3c(CNC)c(O)ccc3nc2-1 [N-desmethyl topotecan],percent of N-desmethyl topotecan formed,[5]; in the plasma,less than 0.7%
same,percent of N-desmethyl topotecan formed,[5]; in the urine,1–4%
"S=C=NCCc1ccccc1 [PEITC, phenethyl isothiocyanate]",decrease of ATP-dependent accumulation of PEITC in inside-out vesicles by FTC,BCRP [6],1.7 fold
same,investigated as substrate (S)/inhibitor (I),BCRP [7],Phenethyl isothiocyanate (S)
same,increase in accumulation of vinblastine,MRP1 [8],2 fold
same,accumulation of 14C-PEITC in absence and presence of P-gp inhibitor,P-gp [9],not changed
same,change of 14C tracer accumulation by MK571,"MRP1 [10]; 100 μM MK571, higher PEITC concentrations",did not change
same,increase of 14C tracer accumulation by MK571,"MRP1 [10]; 2 h co-incubation with 100 μM MK571, PEITC 1 μM",6.8 fold
same,increase of 14C tracer accumulation by MK571,"MRP1 [10]; 2 h co-incubation with 100 μM MK571, PEITC 5 μM",5.9 fold
same,increase of 14C tracer accumulation by MK571,"MRP1 [10]; 2 h co-incubation with 100 μM MK571, PEITC 20 μM",1.9 fold
same,investigated as substrate (S)/inhibitor (I),P-gp [3],Phenethyl isothiocyanate (S)
same,"GSH, % of control values in untreated cells",cellular GSH levels,10±3.5 % of control
same,decrease of cellular GSH levels,cellular GSH levels,decreased
same,increase in accumulation of daunomycin,CaCo2 cell monolayers,1.85 fold
same,increase of intracellular 14C accumulation by MK571,"MRP2; 50 μM MK571, PEITC 1 μM",2.5 fold
same,increase of intracellular 14C accumulation by MK571,"MRP2; 50 μM MK571, PEITC 5 μM",3.5 fold
same,increase of intracellular 14C accumulation by MK571,"MRP2; 50 μM MK571, PEITC 10 μM",4.5 fold
same,increase of intracellular 14C accumulation by MK571,"MRP2; 50 μM MK571, PEITC 50 μM",1.8 fold
same,intracellular 14C lower in MDCK/MRP2 than in wild type MDCKII cells,MRP2; PEITC 1 μM,55%
same,intracellular 14C lower in MDCK/MRP2 than in wild type MDCKII cells,MRP2; PEITC 5 μM,14%
same,intracellular 14C lower in MDCK/MRP2 than in wild type MDCKII cells,MRP2; PEITC 10 μM,12%
same,intracellular 14C lower in MDCK/MRP2 than in wild type MDCKII cells,MRP2; PEITC 50 μM,61%
same,increase in accumulation of vinblastine,P-gp [11],not
same,clearance,[12]; 2 umol/kg,11.6 mL/min/kg
same,Half-life,"[12]; iv, 66 mg/kg",13.1 h (i.v.)
same,Cmax,"[12]; po, 16.3 mg/kg",42.1 µM
same,Tmax,"[12]; po, 16.3 mg/kg",2.0 h
same,oral bioavailability,[12]; po,high
same,Nonlinear pharmacokinetics,[12],Yes
same,CL/F,[13],29.5 L/h
same,Cmax,[13],0.928 µM
same,Half-life,[13],4.9 h
same,Tmax,[13],2.6 h
C=CCN=C=S [Allyl isothiocyanate],investigated as substrate (S)/inhibitor (I),"MRP1 [2]; HL60/AR, MRP1",Allyl isothiocyanate (S)
CC[C@@]1(O)C(=O)OCc2c1cc1n(c2=O)Cc2cc3c(CN(C)C)c(O)ccc3nc2-1 [topotecan],AUC(0-inf),"[14]; iv, 1 mg/kg, AUC0–∞, i.v. administration of 1 mg/kg topotecan, four rats",707 ng·h/mL
same,AUC(0-t),"[14]; po, 2 mg/kg, AUC0–720 min, topotecan alone (2 mg/kg dose)",182 ng·h/mL

# Reference: publication PMC3694332 (Biopharmaceutics & drug disposition, 2009)
